Experimental data: patent US20100204110A1, “USE OF A PEPTIDE AS A THERAPEUTIC AGENT” (priority 2007, published 2010)
Ends that are not written are not given here.

Columns and labels:
HIV-1IIIB = experiment: HIV-1 antiviral assay in CEM-SS cells (MTS); type: cell-based; conditions: positive controls; CEM-SS cells plus HIV-1IIIB
[1] = test system: hepatitis B virus (HBV) ayw strain; experiment: HBV assay in HepG2-2.2.15 cells (TaqMan PCR of HBV DNA); type: cell-based; conditions: 10 micrograms per ml, six days
Excerpt: HepG2-2.2.15 is a stable cell line containing the hepatitis B virus (HBV) ayw strain genome (ATCC Cat. No. CRL-11997). Antiviral compounds blocking any late step of viral replication such as transcription, translation, pregenome encapsidation, reverse transcription, particle assembly and release can be identified and characterized using this cell line. In this assay, an active compound will reduce the production of secreted HBV from cells, measured by utilizing real time quantitative PCR (TaqMan) assay to directly and accurately measure HBV DNA copies.
HepG2-2.2.15 cells were plated in 96-well microtiter plates. After 16-24 hours the confluent monolayer of HepG2-2.2.15 cells was washed and the medium was replaced with complete medium containing test peptides—10 micrograms per ml—in duplicate. […] Six days following the initial administration of the peptides, the cell culture supernatants was collected, treated with pronase and DNAse and then used in a real-time quantitative TaqMan PCR assay. The PCR-amplified HBV DNA was detected in real-time by monitoring increases in fluorescence signals that result from the exonucleolytic degradation of a quenched fluorescence probe molecule that hybridizes to the mplified HBV DNA. […] Antiviral activity was calculated from the reduction in HBV DNA levels (% virus control). […]

[2] = test system: Primary Human endothelial cells (HUVEC); experiment: Endothelial cell migration assay; conditions: 10 micrograms per ml, 22 hours, combination peptide 1:peptide 2 0.95 mole:1.05 mole
Experimental: Primary Human endothelial cells (HUVEC) were seeded in insert chambers with 3 micrometer pore size of multi-transwell plate for 6 hours at 37° C. in Endothelial Cell Basal Medium (EBM) supplemented with 0.1% bovine serum albumin. Thereafter, designated concentration of testing peptides—10 micrograms per ml—was added in duplicate wells. The endothelia were allowed to migrate for 22 hours at 37° C., then, migrated cells were fixed and stained with Hoechst 33342 dye. Images of 3 fields per insert were taken and the number of migrated cells per field were quantified using the ImageProPlus software. Data were analyzed for the average number of the migrated cells and standard deviation of six data points for each treatment condition. […] Statistic p values were computed using the Student's t-test.

HUVEC = experiment: Endothelial tube formation assay; conditions: 10 micrograms per ml, 20 hours, combination peptide 1:peptide 2 1.10 mole:0.90 mole
Experimental: The endothelial tube formation assay is based on the ability of endothelial cells to form three-dimensional capillary-like tubular structures when cultured on a gel of basement membrane extract. […] Pre-labeled HUVEC with Calcein AM were seeded in a 96-well culture plate coated with extracellular metrix (Chemicon international Cat. ECM625) and treated with test peptides—10 micrograms per ml—in full growth medium. Positive control was vehicle only. The endothelial cells were allowed to form tubes foe 20 hours and were then examined under an inverted fluorescent microscope. Duplicate wells for each treatment were photographed and quantitatevily analyzed for an average tubule length using image analysis software ImageProPlus. Raw data were expressed as average tubule lenghs in pixels±standard deviation. Statistic p values were computed using the Student's t-test.

HCMV strain AD169 = experiment: HCMV plaque formation assay in MRC-5 cells; conditions: 10 micrograms per ml, 7-10 days
RAW 264.7 cells = experiment: Phagocytosis assay (Fluorescein-labeled Escherichia coli, flow cytometry); conditions: 10 micrograms per ml, combination peptide 1 : peptide 2 1.10 mole : 0.90 mole
Experimental: RAW 264.7 (Mouse leukaemic monocyte macrophage cell line) cells were obtained from ATCC and grown in RPMI 1640 medium containing 10% FBS. Cells were incubated in 12×75 mm tubes at 37° C. with test peptides—10 micrograms per ml—for 30 min prior to adding Fluorescein-labeled Escherichia coli bacteria as the agent to be ingested. After the cells were incubated for additional 60 min at 37° C. and allowed to ingest the Fluorescein-labeled Escherichia coli bacteria, cells were fixed with 1% paraformaldehyde. The samples were then analyzed by flow cytometry to determine the amount of phagocytosis as a function of brightness (the greater the phagocytic activity, the more fluorescence in the macrophage population). Data are reported as % positive and the mean fluorescence intensity (MFI) of positively stained cells.

spleen cells = experiment: Th1/Th2 cytokine profiling assay (Ovalbumin-restimulated spleen cells, CBA Kit); conditions: 10 micrograms per ml; Ovalbumin restimulation; 72 hours
Excerpt: The Balb/c mice (originated in 1923, it is a popular strain and is used in many different research disciplines. Also classified as an inbred from the production of 20 or more successive brother-sister matings, the Balb/c mouse is albino and small in size) were immunized on Days 1, 15, and 29 with Ovalbumin (Ovalbumin is the main protein found in egg white, commonly used to stimulate an immunological reaction in test animals) in PBS (5 micrograms/injection). On day 50, spleens of the mice were harvested (3 weeks after last boost with Ovalbumin). Cells were cultured (2×10^5/well in triplicate) and incubated with culture medium or test peptides—10 micrograms per ml—for 30 min. Thereafter, additional Ovalbumin was added to the cells at 10 micrograms/ml for in vitro restimulation of the cells. 72 hours later, cell supernatants were harvested and assayed using the Becton Dickinson Mouse Th1/Th2 Cytokine CBA Kit. This kit can be used to measure Interleukin-2 (IL-2), Interleukin-4 (IL-4), Interleukin-5 (IL-5), Interferon-γ (IFN-γ), and Tumor Necrosis Factor-α (TNF-α) protein levels in a single sample. The kit performance has been optimized for analysis of physiologically relevant concentrations (pg/ml levels) of specific cytokine proteins in tissue culture supernatants and serum samples.

| Compound | antiviral activity of positive control compounds (HIV-1) (HIV-1IIIB) | inhibition of HBV replication as compared to the virus control infection [1] [%] | inhibition of the migration of human endothelial cells [2] [%] | inhibition of the tube formation of human endothelial cells (HUVEC) | inhibition of HCMV plaque formation as compared to the virus control (HCMV strain AD169) | increase on the phagocytic activity of murine macrophages (RAW 264.7 cells) [%] | IFNγ spleen cells; TH1 response (% of control) (spleen cells) | IL-2 spleen cells (% of control) (spleen cells) | IL-4 spleen cells; TH2 response (% of control) (spleen cells) | IL-5 spleen cells; TH2 response (% of control) (spleen cells) | TNF-a spleen cells; TH1 response (% of control) (spleen cells) |
| --- | --- | --- | --- | --- | --- | --- | --- | --- | --- | --- | --- |
| Cc1cn([C@H]2C[C@H](N=[N+]=[N-])[C@@H](CO)O2)c(=O)[nH]c1=O [AZT] | expected levels of antiviral activity | – | – | – | – | – | – | – | – | – | – |
| CC(C)(C)NC(=O)[C@@H]1CN(Cc2cccnc2)CCN1C[C@@H](O)C[C@@H](Cc1ccccc1)C(=O)N[C@H]1c2ccccc2C[C@H]1O [indinavir] | expected levels of antiviral activity | – | – | – | – | – | – | – | – | – | – |
| Val-Tyr-Pro-Asn-Gly-Ala-Glu-Asp-Glu-Ser-Ala-Glu-Ala-Phe-Pro-Leu-Glu-Phe-OH (VYPNGAEDESAEAFPLEF-OH) [peptide 2] | – | 37.6 | 38 | did not inhibit | did not inhibit | 28.6 | 114.7 % of control | 53.9 % of control | 140.5 % of control | 65.5 % of control | 118.8 % of control |
